We go through 1 compound from ChEMBL document CHEMBL5715942, “A novel histone deacetylase 8 (HDAC8)-specific inhibitor PCI-34051 induces apoptosis in T-cell lymphomas” (Leukemia, 2008).

For test [1], the system named is Jurkat. As to the kind of experiment: Induction of apoptosis in human Jurkat cells assessed as intracellular calcium level at 10 uM in presence of Iodo-1 and U73343 by spectrofluorimetric analysis. It counts as functional, cell-based. For orientation: Calcium assays in cells follow changes in intracellular calcium, usually with a dye or a luminescent sensor.
Test [2] deals with RKO. As to the kind of experiment: Anti-proliferative activity against human RKO cells assessed as growth inhibition incubated for 72 hrs by alamar blue staining based fluorometric assay. The test is classed as functional. (In general: Alamar Blue is a resazurin reagent that responds to reducing activity.)
Test [3] deals with HCT-116. As to the kind of experiment: Anti-proliferative activity against human HCT-116 cells assessed as growth inhibition incubated for 72 hrs by alamar blue staining based fluorometric assay. The test is classed as functional.
For test [4], the system named is Jurkat. As to the kind of experiment: Induction of apoptosis in human Jurkat cells assessed as increased caspase-3 activity at 5 uM incubated for 12 to 48 hrs by colorimetric assay. The note with it: time 12-48 hrs. The test is classed as functional, cell-based.
Test [5] relates to HeLa. As to the kind of experiment: Anti-proliferative activity against human HeLa cells assessed as growth inhibition incubated for 72 hrs by alamar blue staining based fluorometric assay. The test is classed as functional.
Test [6] deals with RKO. As to the kind of experiment: Induction of apoptosis in human RKO cells incubated for 72 hrs by Annexin-V staining based flow cytometry analysis relative to control. The test is classed as functional.
The subject of test [7] is J.gamma1. As to the kind of experiment: Induction of apoptosis in human J.gamma1 cells at 10 uM incubated for 2 days in presence of U-73343 by Annexin-V staining based flow cytometry analysis. The note with it: time 2.0 day. The test is classed as functional, cell-based. For orientation: Flow cytometry measures light scatter and fluorescence of single cells or particles in a stream.

Test [8] has as its system Jurkat. As to the kind of experiment: Downregulation of apoptosis in human Jurkat cells incubated for 2 days in presence of U73122 by Annexin-V staining based flow cytometry analysis. It counts as functional, cell-based. The note with it: dose 10.0 µM, time 2.0 day.
Test [9] has as its system Jurkat. As to the kind of experiment: Downregulation of apoptosis in human Jurkat cells incubated for 24 hrs in presence of BAPTA-AM by Annexin-V staining based flow cytometry analysis. The test is classed as functional, cell-based. The note with it: dose 10.0 µM.
Test [10] deals with Ramos. As to the kind of experiment: Induction of apoptosis in human Ramos cells assessed as cell death at 5 uM incubated for 2 days by Annexin-V staining based flow cytometry analysis. It counts as functional. The note with it: time 2.0 day.
Test [11] has as its system K562. As to the kind of experiment: Anti-proliferative activity against human K562 cells assessed as growth inhibition incubated for 72 hrs by alamar blue staining based fluorometric assay. It counts as functional.
Test [12] has as its system RPMI-8226. As to the kind of experiment: Anti-proliferative activity against human RPMI-8226 cells assessed as growth inhibition incubated for 72 hrs by alamar blue staining based fluorometric assay. The test is classed as functional.
Test [13] relates to HuT78. As to the kind of experiment: Induction of apoptosis in human HuT78 cells assessed as cell death at 5 uM incubated for 2 days by Annexin-V staining based flow cytometry analysis. Conditions: time 2.0 day. It counts as functional.

Molecules are shown by their SMILES. Active and inactive are the calls of the source. The calls are words filed in the database; no cut-off is given here.

One may read the GI50 as the concentration giving 50% growth inhibition. Turning to `COc1ccc(Cn2ccc3ccc(C(=O)NO)cc32)cc1`, the result in test [1], in [4] and in test [13] was Active. Also, the GI50 in [2] was 14 µM; in test [3] it was > 20 µM; in [5] it was > 20 µM; in test [11], 33.6 µM; in test [12] it was 28 µM. In addition, the Activity in test [6] was 0%; in test [8], “Dose-Dependent Effect”; in test [9], “Dose-Dependent Effect”. Further, the outcome in test [7] and in test [10] was inactive.
